Measurements as given in patent US5498775A, “Polyanionic benzylglycosides as inhibitors of smooth muscle cell proliferation” (American Home Products Corporation, priority 1994, dated 1996).

Test system: human and porcine aortic smooth muscle cells and human aortic endothelial cells
Assay: Cytotoxicity, MTT assay
Assay type: cell-based
Details: up to 250 μM, 24 h at 37° C., without serum
From the text: The ability of the compounds of the present invention to inhibit smooth muscle cell proliferation and modulate endothelial cell growth was established using isolated aortic cells obtained from commercial sources or, for certain species, prepared in-house. Cell lines used in this study include human and porcine aortic smooth muscle cells and human aortic endothelial cells. Human aortic cell lines were obtained from Clonetics Corporation (San Diego).
Briefly, cells were again grown in 24 well plates to 70-80% confluency and, as before, serum deprived for 24-48 h prior to initiation of the experimental protocol. To insure that the MTT assay monitored toxicity rather than proliferation, cells were incubated with 250 μM drug in fresh medium without serum for 24 h at 37° C. in a humidified CO2 incubator. Upon completion of the compound treatment, MTT (3-[4,5-dimethylthiazol-2-yl]-2,5-diphenyltetrazolium bromide) indicator dye was added for 4 h at 37° C. Cells were then lysed and aliquots from each well were transferred to a 96 well plate for analysis. Absorbance at 570 nm wavelength with a reference wavelength of 630 nm was recorded using an ELISA plate reader. Results are reported as percent viable using no drug (100% viable) and pre-solubilization (0% viable) standards.

Cc1ccc(CO[C@@H]2O[C@H](COS(=O)(=O)O)[C@@H](O[C@H]3O[C@H](COS(=O)(=O)O)[C@@H](OS(=O)(=O)O)[C@H](OS(=O)(=O)O)[C@H]3OS(=O)(=O)O)[C@H](OS(=O)(=O)O)[C@H]2OS(=O)(=O)O)cc1NC(=O)c1cccc(NC(=O)Nc2cccc(C(=O)Nc3cc(CO[C@@H]4O[C@H](COS(=O)(=O)O)[C@@H](O[C@H]5O[C@H](COS(=O)(=O)O)[C@@H](OS(=O)(=O)O)[C@H](OS(=O)(=O)O)[C@H]5OS(=O)(=O)O)[C@H](OS(=O)(=O)O)[C@H]4OS(=O)(=O)O)ccc3C)c2)c1 [EXAMPLE 26, STEP 5]
cytotoxicity (MTT): No toxicity was observed up to 250 μM
